# Measurements: ChEMBL document CHEMBL4007440, “Development of the First Generation of Disulfide-Based Subtype-Selective and Potent Covalent Pyruvate Dehydrogenase Kinase 1 (PDK1) Inhibitors” (J Med Chem, 2017)
# The source made the active and inactive calls. No cut-off for these calls is given here.
# Assays:
# [1] = target: T1, [Pyruvate dehydrogenase (acetyl-transferring)] kinase isozyme 1, mitochondrial (Homo sapiens, UniProt Q15118); test: Inhibition of full length His6-tagged PDK1 (unknown origin) expressed in Escherichia coli assessed as inactivation rate using full length His6-tagged PDHA1 as substrate up to 45 mins by ELISA
# [2] = target: T1, [Pyruvate dehydrogenase (acetyl-transferring)] kinase isozyme 1, mitochondrial; test: Ratio of Kinact to Ki for full length His6-tagged PDK1 (unknown origin) expressed in Escherichia coli
# [3] = target: T1, [Pyruvate dehydrogenase (acetyl-transferring)] kinase isozyme 1, mitochondrial; test: Inhibition of full length His6-tagged PDK1 (unknown origin) expressed in Escherichia coli using full length His6-tagged PDHA1 as substrate after 30 mins by ELISA
# [4] = target: T1, [Pyruvate dehydrogenase (acetyl-transferring)] kinase isozyme 1, mitochondrial; test: Inhibition of PDK1 in human A549 cells assessed as reduction in phosphorylation of PDHE1 at S293 residue at 10 uM after 24 hrs by chemiluminescence/femtochemiluminescence method; assay type: cell-based
# [5] = target: T1, [Pyruvate dehydrogenase (acetyl-transferring)] kinase isozyme 1, mitochondrial; test: Inhibition of PDK1 in human A549 cells assessed as reduction in phosphorylation of PDHE1 at S232 residue at 1 uM after 24 hrs by chemiluminescence/femtochemiluminescence method; assay type: cell-based
# [6] = target: T1, [Pyruvate dehydrogenase (acetyl-transferring)] kinase isozyme 1, mitochondrial; test: Inhibition of PDK1 in human A549 cells assessed as reduction in phosphorylation of PDHE1 at S293 residue at 1 uM after 24 hrs by chemiluminescence/femtochemiluminescence method; assay type: cell-based
# [7] = target: T1, [Pyruvate dehydrogenase (acetyl-transferring)] kinase isozyme 1, mitochondrial; test: Inhibition of PDK1 in human A549 cells assessed as reduction in phosphorylation of PDHE1 at S232 residue at 10 uM after 24 hrs by chemiluminescence/femtochemiluminescence method; assay type: cell-based
# [8] = Antiproliferative activity against human GM00637 cells after 72 hrs by CCK8 assay; assay type: cell-based; details: GM00637, 72 h
# [9] = Antiproliferative activity against human Kelly cells after 72 hrs by CCK8 assay
# [10] = target: T2, [Pyruvate dehydrogenase (acetyl-transferring)] kinase isozyme 4, mitochondrial (Homo sapiens, UniProt Q16654); test: Inhibition of PDK4 (unknown origin) at 10 uM using full length His6-tagged PDHA1 as substrate after 30 mins by ELISA
# Target sequence in this assay (Q16654 whole entry, looked up): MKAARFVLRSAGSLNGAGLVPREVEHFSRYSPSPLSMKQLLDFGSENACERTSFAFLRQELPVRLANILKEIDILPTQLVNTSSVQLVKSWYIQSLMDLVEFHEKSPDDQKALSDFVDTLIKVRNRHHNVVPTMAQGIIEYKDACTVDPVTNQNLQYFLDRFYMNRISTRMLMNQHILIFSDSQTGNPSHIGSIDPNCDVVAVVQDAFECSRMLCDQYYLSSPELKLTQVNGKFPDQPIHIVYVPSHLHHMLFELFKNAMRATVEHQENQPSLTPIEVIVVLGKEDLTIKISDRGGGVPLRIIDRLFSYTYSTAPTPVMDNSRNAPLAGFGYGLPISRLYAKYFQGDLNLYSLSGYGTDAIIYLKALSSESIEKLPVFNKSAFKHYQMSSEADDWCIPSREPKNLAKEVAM
# [11] = target: T1, [Pyruvate dehydrogenase (acetyl-transferring)] kinase isozyme 1, mitochondrial; test: Inhibition of PDK1 in human A549 cells assessed as increase in reactive oxygen species after 24 hrs by dihydroethidium staining based FACS analysis; assay type: cell-based
# [12] = system: A549; test: Antitumor activity against human A549 cells xenografted in BALB/c nude mouse assessed as tumor growth inhibition at 80 mg/kg, ip for 21 days measured on day 21 post dose relative to control; assay type: functional; details: 504 h, read-out: TGI
# [13] = system: L02; test: Antiproliferative activity against human LO2 cells after 72 hrs by CCK8 assay; assay type: cell-based; details: L02, 72 h
# [14] = target: [Pyruvate dehydrogenase (acetyl-transferring)] kinase isozyme 3, mitochondrial (Homo sapiens, UniProt Q15120); test: Inhibition of PDK3 (unknown origin) using full length His6-tagged PDHA1 as substrate after 30 mins by ELISA
# [15] = system: A549; test: Antitumor activity against human A549 cells xenografted in BALB/c nude mouse assessed as tumor growth inhibition at 40 mg/kg, ip for 21 days measured on day 21 post dose relative to control; assay type: functional; details: 504 h, read-out: TGI
# [16] = target: [Pyruvate dehydrogenase (acetyl-transferring)] kinase isozyme 2, mitochondrial (Homo sapiens, UniProt Q15119); test: Inhibition of PDK2 (unknown origin) using full length His6-tagged PDHA1 as substrate after 30 mins by ELISA
# [17] = system: A549; test: cells; details: Homo sapiens, A549, 72 h
# Description: Antiproliferative activity against human A549 cells after 72 hrs by CCK8 assay
# [18] = target: T1, [Pyruvate dehydrogenase (acetyl-transferring)] kinase isozyme 1, mitochondrial; test: Inhibition of PDK1 in human A549 cells assessed as reduction in extracellular acidification rate after 24 hrs by fluorescent biosensor based assay; assay type: cell-based
# [19] = target: T1, [Pyruvate dehydrogenase (acetyl-transferring)] kinase isozyme 1, mitochondrial; test: Inhibition of PDK1 in human A549 cells assessed as reduction in phosphorylation of PDHE1 at S293 residue after 24 hrs by chemiluminescence/femtochemiluminescence method; assay type: cell-based
# [20] = target: T1, [Pyruvate dehydrogenase (acetyl-transferring)] kinase isozyme 1, mitochondrial; test: Inhibition of full length His6-tagged PDK1 (unknown origin) expressed in Escherichia coli using full length His6-tagged PDHA1 as substrate in presence of GSH after 30 mins by ELISA
# [21] = target: T1, [Pyruvate dehydrogenase (acetyl-transferring)] kinase isozyme 1, mitochondrial; test: Inhibition of PDK1 in human A549 cells assessed as reduction in phosphorylation of PDHE1 at S232 residue after 24 hrs by chemiluminescence/femtochemiluminescence method; assay type: cell-based
# [22] = target: T2, [Pyruvate dehydrogenase (acetyl-transferring)] kinase isozyme 4, mitochondrial; test: Inhibition of PDK4 (unknown origin) using full length His6-tagged PDHA1 as substrate after 30 mins by ELISA
# Target sequence in this assay (Q16654 whole entry): as the sequence (Q16654 whole entry, looked up) above
# [23] = system: A549; test: Antitumor activity against human A549 cells xenografted in BALB/c nude mouse assessed as reduction in tumor weight at 40 to 80 mg/kg, ip for 21 days measured on day 21 post dose; assay type: functional, organism-based
# [24] = system: Mus musculus; test: Toxicity in BALB/c nude mouse assessed as body weight loss at 40 to 80 mg/kg, ip for 21 days; assay type: organism-based; details: in vivo, 504 h
# T1 sequence (Q15118 whole entry): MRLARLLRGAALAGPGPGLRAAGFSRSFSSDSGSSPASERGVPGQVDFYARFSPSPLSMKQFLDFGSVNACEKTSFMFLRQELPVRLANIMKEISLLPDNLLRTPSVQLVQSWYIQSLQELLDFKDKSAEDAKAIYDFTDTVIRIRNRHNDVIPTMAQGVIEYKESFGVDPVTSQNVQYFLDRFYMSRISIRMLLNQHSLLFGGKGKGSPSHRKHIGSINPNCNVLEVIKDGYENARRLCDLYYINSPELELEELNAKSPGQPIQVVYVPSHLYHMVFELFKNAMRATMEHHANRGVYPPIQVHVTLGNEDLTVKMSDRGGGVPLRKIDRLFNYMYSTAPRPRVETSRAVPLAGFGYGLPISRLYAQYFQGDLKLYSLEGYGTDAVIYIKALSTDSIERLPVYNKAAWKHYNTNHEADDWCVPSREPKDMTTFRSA
# Sequence of [Pyruvate dehydrogenase (acetyl-transferring)] kinase isozyme 3, mitochondrial (Q15120 whole entry): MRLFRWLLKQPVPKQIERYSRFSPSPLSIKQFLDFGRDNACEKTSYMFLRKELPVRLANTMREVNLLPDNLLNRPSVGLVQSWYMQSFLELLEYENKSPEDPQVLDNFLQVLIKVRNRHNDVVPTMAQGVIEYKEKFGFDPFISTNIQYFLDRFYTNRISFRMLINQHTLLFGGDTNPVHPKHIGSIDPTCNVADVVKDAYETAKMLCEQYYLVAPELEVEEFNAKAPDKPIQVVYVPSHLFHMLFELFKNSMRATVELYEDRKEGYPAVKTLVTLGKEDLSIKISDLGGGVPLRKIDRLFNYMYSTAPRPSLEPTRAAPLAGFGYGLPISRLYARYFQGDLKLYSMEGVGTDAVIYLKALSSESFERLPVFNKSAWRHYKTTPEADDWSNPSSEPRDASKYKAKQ
compound,measurement,setting,value
S=C(SSC(=S)N1CCOc2ccccc21)N1CCOc2ccccc21,Kinact,[1],2.1 ×10⁻⁴ /s
same,Ratio,[2],0.06 ×10³ /M/s
same,IC50,[3],1.05 µM
same,Ki,[3],3.35 µM
COCC1CN(C(=S)SSC(=S)N2CCOC(COC)C2)CCO1 (configuration not stated),inhibition,[4],Active
same,IC50,[3],0.09 µM
same,inhibition,[5],Active
same,inhibition,[6],Active
same,inhibition,[7],Active
COC[C@H]1COCCN1C(=S)SSC(=S)N1CCOC[C@@H]1COC,IC50,[3],0.03 µM
same,Ki,[3],0.12 µM
S=C(SSC(=S)N1CCOC(COc2ccccc2)C1)N1CCOC(COc2ccccc2)C1 (configuration not stated),inhibition,[4],Active
same,IC50,[3],0.247 µM
COCC1CN(C(=S)SSC(=S)N2CCCOC(COC)C2)CCCO1 (configuration not stated),IC50,[3],0.35 µM
c1csc(SSc2nccs2)n1,Kinact,[1],56.5 ×10⁻⁴ /s
same,Ratio,[2],1.53 ×10³ /M/s
same,IC50,[3],0.326 µM
same,Ki,[3],3.73 µM
S=C(SSC(=S)N1CCCOC(COc2ccccc2)C1)N1CCCOC(COc2ccccc2)C1 (configuration not stated),IC50,[3],0.609 µM
COC[C@@H]1COCCN1C(=S)SSC(=S)N1CCOC[C@H]1COC,IC50,[8],> 10 µM
same,IC50,[9],1.43 µM
same,inhibition,[4],Active
same,inhibition,[10],inactive
same,inhibition,[11],Dose-dependent effect
same,inhibition in vivo at 80 mg/kg,[12],20%
same,IC50,[3],0.024 µM
same,Ki,[3],0.11 µM
same,IC50,[13],> 10 µM
same,Ki,[14],2.99 µM
same,inhibition in vivo at 40 mg/kg,[15],11%
same,Ki,[16],0.702 µM
same,IC50,[17],0.957 µM
same,inhibition,[18],Dose-dependent effect
same,inhibition,[19],Dose-dependent effect
same,inhibition,[5],Active
same,inhibition,[6],Active
same,inhibition,[20],inactive
same,inhibition,[21],Dose-dependent effect
same,inhibition,[7],Active
CC1(C)CCc2nc(SSc3nc4c(s3)CC(C)(C)CC4)sc2C1,IC50,[3],0.218 µM
O=C(O)C(Cl)Cl [DICHLOROACETIC ACID],IC50,[8],13800 µM
same,IC50,[9],11100 µM
same,IC50,[13],> 15000 µM
same,IC50,[14],5560 µM
same,IC50,[16],504 µM
same,IC50,[22],727 µM
same,inhibition,[20],Active
CN(C)C(=O)OCC1CN(C(=S)SSC(=S)N2CCCOC(COC(=O)N(C)C)C2)CCCO1 (configuration not stated),IC50,[3],1.46 µM
CCOC(=O)C1CCc2nc(SSc3nc4c(s3)CC(C(=O)OCC)CC4)sc2C1 (configuration not stated),IC50,[3],0.109 µM
S=C(SSC(=S)N1CCCOCC1)N1CCCOCC1,IC50,[8],> 10 µM
same,Activity,[23],Active
same,IC50,[9],0.057 µM
same,inhibition,[4],Active
same,inhibition,[10],inactive
same,inhibition,[11],Dose-dependent effect
same,inhibition in vivo at 80 mg/kg,[12],47.8%
same,IC50,[3],0.026 µM
same,Ki,[3],0.109 µM
same,IC50,[13],> 10 µM
same,Ki,[14],7.76 µM
same,inhibition in vivo at 40 mg/kg,[15],26.2%
same,Activity,[24],Non-Toxic
same,Ki,[16],1.28 µM
same,IC50,[17],0.225 µM
same,inhibition,[18],Dose-dependent effect
same,inhibition,[19],Dose-dependent effect
same,inhibition,[5],Active
same,inhibition,[6],Active
same,inhibition,[20],inactive
same,inhibition,[21],Dose-dependent effect
same,inhibition,[7],Active
CCOCC1CN(C(=S)SSC(=S)N2CCOC(COCC)C2)CCO1 (configuration not stated),IC50,[3],0.101 µM
OCCOCC1CN(C(=S)SSC(=S)N2CCCOC(COCCO)C2)CCCO1 (configuration not stated),IC50,[3],6.83 µM
CCCCCCCCCCOCC1CN(C(=S)SSC(=S)N2CCCOC(COCCCCCCCCCC)C2)CCCO1 (configuration not stated),IC50,[3],> 10 µM
CCCCOCC1CN(C(=S)SSC(=S)N2CCCOC(COCCCC)C2)CCCO1 (configuration not stated),IC50,[3],0.588 µM
O=C(O)C1CN(C(=S)SSC(=S)N2CCOC(C(=O)O)C2)CCO1 (configuration not stated),IC50,[3],0.126 µM
C[C@@H]1CN(C(=S)SSC(=S)N2C[C@@H](C)O[C@@H](C)C2)C[C@H](C)O1,inhibition,[4],Active
same,IC50,[3],0.032 µM
same,inhibition,[5],Active
same,inhibition,[6],Active
same,inhibition,[7],Active
CCOCC1CN(C(=S)SSC(=S)N2CCCOC(COCC)C2)CCCO1 (configuration not stated),IC50,[3],0.622 µM
S=C(SSC(=S)N1CCOC(COc2cccc3ccccc23)C1)N1CCOC(COc2cccc3ccccc23)C1 (configuration not stated),Kinact,[1],6.9 ×10⁻⁴ /s
same,Ratio,[2],0.03 ×10³ /M/s
same,IC50,[3],3.87 µM
same,Ki,[3],22.6 µM
C1Cc2nc(SSc3nc4c(s3)COCC4)sc2CO1,IC50,[3],0.169 µM
OCC1CN(C(=S)SSC(=S)N2CCOC(CO)C2)CCO1 (configuration not stated),inhibition,[4],Active
same,IC50,[3],0.702 µM
same,inhibition,[5],inactive
same,inhibition,[6],inactive
same,inhibition,[7],Active
